Experimental data: US20110224160A1, “Use of Escin for Treatment of Type IV Hypersensitivity Reaction” (MARINOMED BIOTECHNOLOGIE GMBH, priority 2008, published 2011)

Key:
[1] = tested on: oxazolone induced topical inflammation in BALB/c mice; experiment: oxazolone induced contact dermatitis model (ear swelling); type: in vivo
Experimental: FIG. 1: Efficacy of escin in an oxazalone induced contact dermatitis model. 3 mg/kg of escin were applied intraperitoneally (ip.) 6 h before challenge, 0.9% saline solution served as a vehicle. […] Bars represent the mean of five animals, SEM is indicated.
Escin was evaluated for anti-inflammatory activity by ip. injection in the oxazolone induced topical inflammation in BALB/c mice, which is a model of type IV hypersensitivity reaction, in particular contact dermatitis. The swelling of the challenged ear in comparison to the unchallenged control was determined as a parameter for induced contact dermatitis.

[2] = tested on: LPS mediated release of TNF alpha; experiment: LPS mediated release of TNF alpha in primary human blood; type: cell-based
[3] = tested on: strong hypersensitivity reactions; experiment: strong hypersensitivity reactions in an in vivo model

In the case of escin, the “inhibition of oxazolone induced ear swelling” value ([1]; BALB/c mice, escin 3 mg/kg ip., 6 hours after oxazolone application, challenged vs unchallenged ear) was “significant inhibition”, the “induced topical inflammation in a mouse model of contact dermatitis” value ([1]; mouse model of contact dermatitis) was “reduced induced topical inflammation” and the “LPS mediated release of TNF alpha” value [2] was “inhibits dose-dependently”. For the same substance, the “effects of strong hypersensitivity reactions” value [3] was “reduces the effects of strong hypersensitivity reactions”.
